These results are taken from ChEMBL document CHEMBL1154506, “Discovery and development of the anticancer agent salinosporamide A (NPI-0052)” (Bioorg Med Chem, 2009).

Each structure is given as a SMILES string. A value given as a limit tells only on which side of the number the result lay.

Test [1] is described as follows: Cytotoxicity against human NCI60 cells. Format: functional.
The test system of the next test is HCT-116. The test can be described thus: Cytotoxicity against human HCT116 cells. The class given is functional, cell-based.

For orientation: GI50 means the concentration at which growth is held to half of that of the control. A lower GI50 goes with more potent growth inhibition. One may read the IC50 as the concentration at which inhibition is half-maximal. Low readings indicate greater potency, high ones weaker potency. The compound `C[C@@]12OC(=O)[C@]1([C@@H](O)[C@@H]1C=CCCC1)NC(=O)[C@@H]2CCCl` [MARIZOMIB] came in with a GI50 in test [1] below 10 nM. In addition, the IC50 in the test on HCT-116 is at most 2 ng/mL.
